Experiment: xn = mol fraction of the nth substance listed
Settings: 101 kPa

CCCC[n+]1ccn(C)c1.CS(=O)(=O)[O-] + O
Settings | electrical conductivity [S/m] | viscosity [mPa·s]
343.15 K, x2 = 0.7015 | – | 6.27
343.15 K, x2 = 0.704 | 2.68 | –
343.15 K, x2 = 0.7495 | – | 4.95
343.15 K, x2 = 0.785 | 4.03 | –
343.15 K, x2 = 0.796 | 4.19 | –
343.15 K, x2 = 0.8016 | – | 3.73
343.15 K, x2 = 0.861 | 7.01 | –
343.15 K, x2 = 0.9004 | – | 1.902
343.15 K, x2 = 0.9254 | – | 1.45
343.15 K, x2 = 0.929 | 9.33 | –
343.15 K, x2 = 0.9503 | – | 1.05
343.15 K, x2 = 0.951 | 9.42 | –
343.15 K, x2 = 0.968 | 8.73 | –
343.15 K, x2 = 0.975 | – | 0.672
344.15 K, x1 = 0.004 | 2.52 | –
344.15 K, x1 = 0.008 | 4.46 | –
344.15 K, x1 = 0.019 | 7.24 | –
344.15 K, x2 = 0.785 | 4.1 | –
344.15 K, x2 = 0.796 | 4.32 | –
344.15 K, x2 = 0.861 | 7.13 | –
344.15 K, x2 = 0.892 | 8.05 | –
344.15 K, x2 = 0.951 | 9.81 | –
345.15 K, x1 = 0.008 | 4.43 | –
345.15 K, x1 = 0.019 | 7.32 | –
345.15 K, x2 = 0.704 | 2.81 | –
345.15 K, x2 = 0.861 | 7.27 | –
345.15 K, x2 = 0.892 | 8.29 | –
345.15 K, x2 = 0.929 | 9.54 | –
346.15 K, x1 = 0.004 | 2.55 | –
346.15 K, x1 = 0.019 | 7.4 | –
346.15 K, x2 = 0.785 | 4.26 | –
346.15 K, x2 = 0.861 | 7.5 | –
346.15 K, x2 = 0.892 | 8.44 | –
346.15 K, x2 = 0.929 | 9.69 | –
346.15 K, x2 = 0.968 | 9.3 | –
347.15 K, x1 = 0.004 | 2.58 | –
347.15 K, x1 = 0.008 | 4.7 | –
347.15 K, x1 = 0.019 | 7.35 | –
347.15 K, x2 = 0.704 | 2.95 | –
347.15 K, x2 = 0.785 | 4.32 | –
347.15 K, x2 = 0.929 | 9.84 | –
347.15 K, x2 = 0.951 | 10.2 | –
347.15 K, x2 = 0.968 | 9.4 | –
348.15 K, x1 = 0.008 | 4.66 | –
348.15 K, x1 = 0.019 | 7.57 | –
348.15 K, x2 = 0.704 | 3.03 | –
348.15 K, x2 = 0.785 | 4.41 | –
348.15 K, x2 = 0.796 | 4.64 | –
348.15 K, x2 = 0.861 | 7.68 | –
348.15 K, x2 = 0.929 | 9.94 | –
348.15 K, x2 = 0.951 | 10.4 | –
348.15 K, x2 = 0.968 | 9.35 | –
349.15 K, x1 = 0.004 | 2.62 | –
349.15 K, x1 = 0.008 | 4.72 | –
349.15 K, x1 = 0.019 | 7.54 | –
349.15 K, x2 = 0.704 | 3.08 | –
349.15 K, x2 = 0.785 | 4.52 | –
349.15 K, x2 = 0.892 | 8.91 | –
349.15 K, x2 = 0.929 | 10.1 | –
349.15 K, x2 = 0.968 | 9.59 | –
350.15 K, x1 = 0.004 | 2.67 | –
350.15 K, x1 = 0.008 | 4.85 | –
350.15 K, x2 = 0.704 | 3.16 | –
350.15 K, x2 = 0.785 | 4.57 | –
350.15 K, x2 = 0.796 | 4.8 | –
350.15 K, x2 = 0.861 | 7.93 | –
350.15 K, x2 = 0.892 | 9.06 | –
350.15 K, x2 = 0.929 | 10.3 | –
350.15 K, x2 = 0.951 | 10.7 | –
350.15 K, x2 = 0.968 | 9.73 | –
351.15 K, x1 = 0.004 | 2.68 | –
351.15 K, x1 = 0.008 | 4.84 | –
351.15 K, x1 = 0.019 | 7.88 | –
351.15 K, x2 = 0.704 | 3.27 | –
351.15 K, x2 = 0.785 | 4.68 | –
351.15 K, x2 = 0.796 | 4.91 | –
351.15 K, x2 = 0.861 | 8.29 | –
351.15 K, x2 = 0.892 | 9.2 | –
351.15 K, x2 = 0.929 | 10.5 | –
351.15 K, x2 = 0.951 | 10.8 | –
351.15 K, x2 = 0.968 | 9.91 | –
352.15 K, x1 = 0.004 | 2.71 | –
352.15 K, x1 = 0.008 | 4.89 | –
352.15 K, x2 = 0.704 | 3.37 | –
352.15 K, x2 = 0.785 | 4.8 | –
352.15 K, x2 = 0.796 | 4.99 | –
352.15 K, x2 = 0.861 | 8.21 | –
352.15 K, x2 = 0.892 | 9.33 | –
352.15 K, x2 = 0.929 | 10.6 | –
352.15 K, x2 = 0.968 | 9.86 | –
353.15 K, x1 = 0.008 | 4.92 | –
353.15 K, x1 = 0.019 | 8.06 | –
353.15 K, x2 = 0.892 | 9.44 | –
353.15 K, x2 = 0.929 | 10.7 | –
353.15 K, x2 = 0.968 | 10.1 | –
354.15 K, x1 = 0.004 | 2.79 | –
354.15 K, x1 = 0.008 | 4.98 | –
354.15 K, x1 = 0.019 | 8.03 | –
354.15 K, x2 = 0.704 | 3.55 | –
354.15 K, x2 = 0.785 | 4.98 | –
354.15 K, x2 = 0.796 | 5.01 | –
354.15 K, x2 = 0.892 | 9.6 | –
354.15 K, x2 = 0.929 | 10.8 | –
354.15 K, x2 = 0.951 | 11.1 | –
354.15 K, x2 = 0.968 | 10.2 | –
355.15 K, x1 = 0.008 | 5.04 | –
355.15 K, x1 = 0.019 | 8.25 | –
355.15 K, x2 = 0.785 | 5.05 | –
355.15 K, x2 = 0.796 | 5.26 | –
355.15 K, x2 = 0.861 | 8.55 | –
355.15 K, x2 = 0.892 | 9.73 | –
355.15 K, x2 = 0.929 | 11 | –
355.15 K, x2 = 0.951 | 11.1 | –
356.15 K, x1 = 0.008 | 5.09 | –
356.15 K, x1 = 0.019 | 8.34 | –
356.15 K, x2 = 0.704 | 3.73 | –
356.15 K, x2 = 0.785 | 5.15 | –
356.15 K, x2 = 0.796 | 5.34 | –
356.15 K, x2 = 0.861 | 8.43 | –
356.15 K, x2 = 0.892 | 9.89 | –
356.15 K, x2 = 0.929 | 11.1 | –
356.15 K, x2 = 0.951 | 11.2 | –
356.15 K, x2 = 0.968 | 10.4 | –
357.15 K, x1 = 0.008 | 5.13 | –
357.15 K, x1 = 0.019 | 8.43 | –
357.15 K, x2 = 0.704 | 3.83 | –
357.15 K, x2 = 0.785 | 5.23 | –
357.15 K, x2 = 0.796 | 5.41 | –
357.15 K, x2 = 0.861 | 8.6 | –
357.15 K, x2 = 0.892 | 10 | –
357.15 K, x2 = 0.968 | 10.6 | –
358.15 K, x1 = 0.004 | 2.9 | –
358.15 K, x1 = 0.008 | 5.18 | –
358.15 K, x1 = 0.019 | 8.47 | –
358.15 K, x2 = 0.704 | 3.88 | –
358.15 K, x2 = 0.785 | 5.22 | –
358.15 K, x2 = 0.796 | 5.47 | –
358.15 K, x2 = 0.861 | 8.73 | –
358.15 K, x2 = 0.929 | 11.3 | –
358.15 K, x2 = 0.951 | 11.5 | –
358.15 K, x2 = 0.968 | 10.6 | –

— a compilation of properties of binary mixtures (doi:10.1016/j.molliq.2014.08.031)
